Measured values reported in PMC5936891, “A focused library synthesis and cytotoxicity of quinones derived from the natural product bolinaquinone” (Royal Society Open Science, 2018).

What was measured:
[1] = system: MCF10A (normal breast cell line); experiment: MTT in vitro growth inhibition assay, MCF10A; assay type: cell-based; conditions: Homo sapiens, MCF-10A; for inhibition at 25 µM: 25 µM of drug, 72 h, read-out: Percentage of Cell Growth Inhibition MCF10A; for GI50: normal breast cell line, 72 h drug exposure
From the text: (§1) With the desired bolinaquinone analogues 12–43 in hand, we examined their cytotoxicity against a panel of 11 tumour cell lines: HT29 (colon carcinoma), U87 and SJ-G2 (glioblastoma), MCF-7 (breast carcinoma), A2780 (ovarian carcinoma), H460 (lung carcinoma), A431 (skin carcinoma), Du145 (prostate carcinoma), BE2-C (neuroblastoma), MIA (pancreatic carcinoma), SMA (spontaneous murine astrocytoma) and a normal breast cell line (MCF10A). The inclusion of the MCF-10A cell line allowed a determination of a crude measure of relative toxicity while noting that the ultimate arbiter of toxicity requires in vivo evaluation. All analogues were initially screened at a 25 µM drug concentration.
(§2) Stock solutions were prepared as follows and stored at −20°C: drugs were stored as 40 mM solutions in DMSO. All cell lines were cultured in a humidified atmosphere 5% CO2 at 37°C. The cancer cell lines were maintained in Dulbecco's modified Eagle's medium (DMEM) (Trace Biosciences, Australia) supplemented with 10% fetal bovine serum, 10 mM sodium bicarbonate, penicillin (100 IU ml^−1), streptomycin (100 µg ml^−1) and glutamine (4 mM). The non-cancer MCF10A cell line was cultured in DMEM:F12 (1 : 1) cell culture media, 5% heat-inactivated horse serum, supplemented with penicillin (50 IU ml^−1), streptomycin (50 µg ml^−1), 20 mM Hepes, L-glutamine (2 mM), epidermal growth factor (20 ng ml^−1), hydrocortisone (500 ng ml^−1), cholera toxin (100 ng ml^−1) and insulin (10 ug ml^−1).
(§3) Cells in logarithmic growth were transferred to 96-well plates. Cytotoxicity was determined by plating cells in duplicate in 100 µl medium at a density of 2500–4000 cells per well. On day 0 (24 h after plating), when the cells were in logarithmic growth, 100 μl of medium with or without the test agent was added to each well. After 72 h, drug exposure growth inhibitory effects were evaluated using the MTT (3-[4,5-dimethylthiazol-2-yl]-2,5-diphenyl-tetrazolium bromide) assay and the absorbance read at 540 nm. Percentage growth inhibition was determined at a fixed drug concentration of 25 µM. A value of 100% is indicative of complete cell growth inhibition. Those analogues showing appreciable percentage growth inhibition underwent further dose–response analysis allowing for the calculation of a GI50 value. This value is the drug concentration at which cell growth is 50% inhibited based on the difference between the optical density values on day 0 and those at the end of drug exposure.

BE2-C (neuroblastoma) = experiment: MTT in vitro growth inhibition assay, BE2-C; assay type: cell-based; conditions: Homo sapiens, BE(2)-C, 72 h; for inhibition at 25 µM: 25 µM of drug, read-out: Percentage of Cell Growth Inhibition BE2-C; for GI50: 72 h drug exposure
From the text: as §1, §2, §3

HT29 (colon carcinoma) = experiment: MTT in vitro growth inhibition assay, HT29; assay type: cell-based; conditions: Homo sapiens; for inhibition at 25 µM: HT-29, 25 µM of drug, 72 h, read-out: Percentage of Cell Growth Inhibition HT29; for GI50: HT-29, 72 h drug exposure
From the text: as §1, §2, §3

[2] = system: SMA (spontaneous murine astrocytoma); experiment: MTT in vitro growth inhibition assay, SMA; assay type: cell-based; conditions: Mus musculus; for inhibition at 25 µM: 25 µM of drug, 72 h, read-out: Percentage of Cell Growth Inhibition SMA; for GI50: 72 h drug exposure
From the text: as §1, §2, §3

[3] = system: Du145 (prostate carcinoma); experiment: MTT in vitro growth inhibition assay, Du145; assay type: cell-based; conditions: Homo sapiens, DU-145, 25 µM of drug, 72 h, read-out: Percentage of Cell Growth Inhibition Du145
From the text: as §1, §2, §3

[4] = system: MIA (pancreatic carcinoma); experiment: MTT in vitro growth inhibition assay, MIA; assay type: cell-based; conditions: for inhibition at 25 µM: 25 µM of drug, 72 h, read-out: Percentage of Cell Growth Inhibition MIA; for GI50: 72 h drug exposure
From the text: as §1, §2, §3

MCF-7 (breast carcinoma) = experiment: MTT in vitro growth inhibition assay, MCF-7; assay type: cell-based; conditions: Homo sapiens; for inhibition at 25 µM: MCF7, 25 µM of drug, 72 h, read-out: Percentage of Cell Growth Inhibition MCF-7; for GI50: MCF7, 72 h drug exposure
From the text: as §1, §2, §3

H460 (lung carcinoma) = experiment: MTT in vitro growth inhibition assay, H460; assay type: cell-based; conditions: Homo sapiens; for inhibition at 25 µM: NCI-H460, 25 µM of drug, 72 h, read-out: Percentage of Cell Growth Inhibition H460; for GI50: NCI-H460, 72 h drug exposure
From the text: as §1, §2, §3

A431 (skin carcinoma) = experiment: MTT in vitro growth inhibition assay, A431; assay type: cell-based; conditions: Homo sapiens; for inhibition at 25 µM: A-431, 25 µM of drug, 72 h, read-out: Percentage of Cell Growth Inhibition A431; for GI50: A-431, 72 h, 72 h drug exposure
From the text: as §1, §2, §3

[5] = system: A2780 (ovarian carcinoma); experiment: MTT in vitro growth inhibition assay, A2780; assay type: cell-based; conditions: Homo sapiens; for inhibition at 25 µM: 25 µM of drug, 72 h, read-out: Percentage of Cell Growth Inhibition A2780; for GI50: 72 h drug exposure
From the text: as §1, §2, §3

SJ-G2 (glioblastoma) = experiment: MTT in vitro growth inhibition assay, SJ-G2; assay type: cell-based; conditions: for inhibition at 25 µM: 25 µM of drug, 72 h, read-out: Percentage of Cell Growth Inhibition SJ-G2; for GI50: 72 h drug exposure
From the text: as §1, §2, §3

U87 (glioblastoma) = experiment: MTT in vitro growth inhibition assay, U87; assay type: cell-based; conditions: for inhibition at 25 µM: 25 µM of drug, 72 h, read-out: Percentage of Cell Growth Inhibition U87; for GI50: 72 h drug exposure
From the text: as §1, §2, §3

Structure (SMILES) | inhibition at 25 µM [1] | GI50 [1] | inhibition at 25 µM (BE2-C (neuroblastoma)) | GI50 (BE2-C (neuroblastoma)) | melting point | inhibition at 25 µM (HT29 (colon carcinoma)) | inhibition at 25 µM [2] | GI50 [2] | inhibition at 25 µM [3] | inhibition at 25 µM [4] | inhibition at 25 µM (MCF-7 (breast carcinoma)) | GI50 (MCF-7 (breast carcinoma)) | inhibition at 25 µM (H460 (lung carcinoma)) | inhibition at 25 µM (A431 (skin carcinoma)) | inhibition at 25 µM [5] | GI50 [5] | inhibition at 25 µM (SJ-G2 (glioblastoma)) | GI50 (SJ-G2 (glioblastoma)) | inhibition at 25 µM (U87 (glioblastoma)) | GI50 [4] | further results
COC1=CC(=O)C(OC)=C(c2ccccc2-c2ccccc2)C1=O [compound 29, 3-Biphenyl-2-yl-2,5-dimethoxycyclohexa-2,5-diene-1,4-dione] | 21 ± 8% | 36 ± 3.8 µM | > 100% | 11 µM | 186 to 188 °C | 15 ± 1% | 72 ± 9% | 20 ± 1.7 µM | 10 ± 2% | < 10% | 27 ± 5% | 28 ± 2.6 µM | 10 ± 4% | 14 ± 3% | 77 ± 5% | 17 ± 1.2 µM | 38 ± 9% | 31 ± 0.58 µM | 14 ± 4% |  | 
CCCNC1=CC(=O)C(NCCC)=C(c2ccc(C)cc2)C1=O [compound 38, 2,5-Bis(propylamino)3-p-tolylcyclohexa-2,5-diene-1,4-dione] | 69 ± 3% |  | 28 ± 12% |  | 166 to 168 °C | 59 ± 4% | 73 ± 1% |  | 56 ± 2% | 67 ± 3% | 57 ± 3% |  | 51 ± 2% | 81 ± 0.3% | 63 ± 4% |  | 50 ± 2% |  | 67 ± 5% |  | 
COC1=CC(=O)C(OC)=C(c2cccc3ccccc23)C1=O [compound 25, 2,5-dimethoxy-3-(naphthalene-1-yl)cyclohexa-2,5-diene-1,4-dione] | < 10% |  | > 100% | 8 ± 0.5 µM | 134 to 137 °C | 16 ± 3% | 77 ± 3% | 20 ± 1.3 µM | 10 ± 5% | 18 ± 4% | 28 ± 2% | 29 ± 2 µM | < 10% | 8 ± 3% | 66 ± 13% | 21 ± 1.3 µM | 54 ± 19% | 22 ± 1.5 µM | 10 ± 2% | 42 ± 3.5 µM | GI50 (HT29 (colon carcinoma)): 43 ± 5.5 µM; GI50 (A431 (skin carcinoma)): 47 ± 6.7 µM
COC1=CC(=O)C(OC)=C(c2ccc(CO)cc2)C1=O [compound 17, 3-(4-(Hydroxymethyl)phenyl)-2,5-dimethoxycyclohexa-2,5-diene-1,4-diene] | < 10% | 49 µM | > 100% | ~11 µM | 116 to 118 °C | < 10% | 21 ± 10% | 37 ± 0.7 µM | < 10% | < 10% | < 10% | 36 ± 2 µM | < 10% | < 10% | 53 ± 5% | 22 ± 0.9 µM | 22 ± 4% | 33 ± 1.3 µM | < 10% | 37 ± 1 µM | GI50 (U87 (glioblastoma)): 45 ± 2.3 µM
COC1=CC(=O)C(OC)=C(c2ccccc2)C1=O [compound 12, 2,5-Dimethoxy-3-phenylcyclohexa-2,5-diene-1,4-dione] | < 10% |  | > 100% | 10 ± 1.1 µM | 122 to 124 °C | 24 ± 1% | 49 ± 8% | 29 ± 3.2 µM | < 10% | 31 ± 5% | 40 ± 3% | 22 ± 3.4 µM | < 10% | 10 ± 3% | 75 ± 7% | 18 ± 0.7 µM | 27 ± 6% | 27 ± 0.9 µM | 12 ± 2% | 29 ± 1.5 µM | GI50 (HT29 (colon carcinoma)): 42 ± 6.2 µM; GI50 (H460 (lung carcinoma)): > 50 µM; GI50 (A431 (skin carcinoma)): 40 ± 4.5 µM; GI50 (U87 (glioblastoma)): 47 ± 2.2 µM
COC1=CC(=O)C(OC)=C(c2ccc(O)cc2)C1=O [compound 16, 3-(4-Hydroxyphenyl)-2,5-dimethoxycyclohexa-2,5-diene-1,4-dione] |  |  | < 10% | ~11 µM |  | 11 ± 3% |  | 50 ± 3.2 µM | 21 ± 6% | < 10% | 15% |  | < 10% | > 100% | < 10% | 35 ± 1.9 µM | 21 ± 9% | 43 ± 1.5 µM | < 10% |  | 
COC1=CC(=O)C(OC)=C(c2ccc(OC)cc2OC)C1=O [compound 20, 2,5-Dimethoxy-3-(2,4-dimethoxyphenyl)cyclohexa-2,5-diene-1,4-dione] | 14 ± 6% | 38 ± 5 µM | > 100% | ~11 µM |  | 15 ± 2% | 35 ± 8% | 33 ± 3.5 µM | < 10% | < 10% | 20 ± 3% | 34 ± 3 µM | 10 ± 5% | 11 ± 4% | 48 ± 9% | 25 ± 3 µM | 32 ± 6% | 31 ± 1.5 µM | 17 ± 3% |  | 
COC1=CC(=O)C(OC)=C(c2ccc(C)cc2)C1=O [compound 13, 2,5-Dimethoxy-3-p-tolylcyclohexa-2,5-diene-1,4-dione] | 10 ± 5% | 50 ± 9.2 µM | > 100% | 12 ± 1.2 µM |  | 10 ± 4% | 45 ± 9% | 33 ± 2.3 µM | 13 ± 2% | < 10% | 23 ± 3% | 37 ± 1 µM | 13 ± 3% | < 10% | 72 ± 10% | 20 ± 1.2 µM | 41 ± 18% | 33 ± 1.9 µM | 13 ± 4% | > 50 µM | GI50 (HT29 (colon carcinoma)): > 50 µM; GI50 (H460 (lung carcinoma)): > 50 µM; GI50 (A431 (skin carcinoma)): > 50 µM; GI50 (U87 (glioblastoma)): > 50 µM
